In general, IC50 refers to the concentration that gives 50% inhibition.

The experiment deals with T1, recombinant human 11 β-HSD1 (Homo sapiens, UniProt P28845).
T1 construct: made in house; host or cells: E. coli
As to the kind of experiment: 11 β-HSD1 SPA Assay (Scintillation Proximity Assay). The experiment is classed as biochemical. The essentials:
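Scintillation proximity read-out of cortisol formed from 40 nM [3H]cortisone by purified recombinant human enzyme (30-100 nM, E. coli) with 1 mM NADPH, pH7.4, 2 hours at room temperature; beads with cortisol antibody and glycyrrhetinic acid stop the reaction, read next day. IC50 derived from inhibition normalised to background and maximal wells.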
In general terms: Scintillation proximity formats need no separation of bound from free tracer.

T1 sequence (P28845 whole entry): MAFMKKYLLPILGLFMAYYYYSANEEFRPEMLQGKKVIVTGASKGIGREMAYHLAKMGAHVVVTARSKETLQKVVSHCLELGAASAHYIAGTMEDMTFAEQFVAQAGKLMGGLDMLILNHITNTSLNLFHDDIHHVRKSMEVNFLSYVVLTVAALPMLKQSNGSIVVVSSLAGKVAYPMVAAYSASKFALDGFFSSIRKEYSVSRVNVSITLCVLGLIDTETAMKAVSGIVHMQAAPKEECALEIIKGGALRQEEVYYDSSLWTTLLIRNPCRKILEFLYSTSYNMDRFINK

`NC(=O)c1ccc(N2[C@@H]3CC[C@H]2C[C@@H](NC(=O)C2(c4cccc(F)c4)CC2)C3)nc1` [Example 104, 6-[3-endo-({[1-(3-fluorophenyl)cyclopropyl]carbonyl}amino)-8-azabicyclo[3.2.1]oct-8-yl]pyridine-3-carboxamide]: the IC50 was below 200 nM. As for `CC(C)(Oc1ccc(Cl)cc1F)C(=O)N[C@H]1C[C@H]2CC[C@@H](C1)N2c1ccc(C(=O)NCC(F)(F)F)cn1` [Example 105, 6-[3-endo-({2-[(4-chloro-2-fluorophenyl)oxy]-2-methylpropanoyl}amino)-8-azabicyclo[3.2.1]oct-8-yl]-N-(2,2,2-trifluoroethyl)pyridine-3-carboxamide], the IC50 was below 200 nM.

For the compound `CC(C)(Oc1ccc(Cl)cc1Cl)C(=O)N[C@H]1C[C@H]2CC[C@@H](C1)N2c1cccnc1` [Example 106, 2-[(2,4-dichlorophenyl)oxy]-2-methyl-N-(8-pyridin-3-yl-8-azabicyclo[3.2.1]oct-3-endo-yl)propanamide], the 50% inhibitory concentration (IC50) was below 200 nM. `CC(C)(Oc1ncc(Cl)cc1Cl)C(=O)N[C@H]1C[C@H]2CC[C@@H](C1)N2c1ccc(C(=O)NCC(F)(F)F)cn1` [Example 107, 6-[3-endo-({2-[(3,5-dichloropyridin-2-yl)oxy]-2-methylpropanoyl}amino)-8-azabicyclo[3.2.1]oct-8-yl]-N-(2,2,2-trifluoroethyl)pyridine-3-carboxamide]: the IC50 was below 200 nM. Under `CC(C)(Oc1ccc(Cl)cn1)C(=O)N[C@H]1C[C@H]2CC[C@@H](C1)N2c1ccc(C(=O)NCC(F)(F)F)cn1` [Example 108, 6-[3-endo-({2-[(5-chloropyridin-2-yl)oxy]-2-methylpropanoyl}amino)-8-azabicycio[3.2.1]oct-8-yl]-N-(2,2,2-trifluoroethyl)pyridine-3-carboxamide] stands below 200 nM. As to `CC(C)(Oc1ccc(F)cn1)C(=O)N[C@H]1C[C@H]2CC[C@@H](C1)N2c1ccc(C(=O)NCC(F)(F)F)cn1` [Example 109, 6-[3-endo-({2-[(5-fluoropyridin-2-yl)oxy]-2-methylpropanoyl}amino)-8-azabicyclo[3.2.1]oct-8-yl]-N-(2,2,2-trifluoroethyl)pyridine-3-carboxamide], the IC50 is below 200 nM. As for `CC(C)(Oc1ccc(Cl)cc1Cl)C(=O)N[C@H]1C[C@H]2CC[C@@H](C1)N2c1ccc(C(=O)NCC(F)(F)F)cc1` [Example 110, 4-[3-endo-({2-[(2,4-dichlorophenyl)oxy]-2-methylpropanoyl}amino)-8-azabicyclo[3.2.1]oct-8-yl]-N-(2,2,2-trifluoroethyl)benzamide], the IC50 was below 200 nM.

For the compound `CC(C)(Oc1ccc(C(F)(F)F)cc1)C(=O)N[C@H]1C[C@H]2CC[C@@H](C1)N2c1ccc(C(=O)NCC(F)(F)F)cn1` [Example 111, 6-{3-endo-[(2-methyl-2-{[4-(trifluoromethyl)phenyl]oxy}propanoyl)amino]-8-azabicyclo[3.2.1]oct-8-yl}-N-(2,2,2-trifluoroethyl)pyridine-3-carboxamide], the IC50 was below 200 nM. Take `CC(C)(Oc1ccccc1C(F)(F)F)C(=O)N[C@H]1C[C@H]2CC[C@@H](C1)N2c1ccc(C(=O)NCC(F)(F)F)cn1` [Example 112, 6-{3-endo-[(2-methyl-2-{[2-(trifluoromethyl)phenyl]oxy}propanoyl)amino]-8-azabicyclo[3.2.1]oct-8-yl}-N-(2,2,2-trifluoroethyl)pyridine-3-carboxamide]: the IC50 is below 200 nM. `CC(C)(Oc1ccccc1C(F)(F)F)C(=O)N[C@H]1C[C@H]2CC[C@@H](C1)N2c1ccc(C(=O)NC2CC2)cn1` [Example 113, N-cyclopropyl-6-{3-endo-[(2-methyl-2-{[2-(trifluoromethyl)phenyl]oxy}propanoyl)amino]-8-azabicyclo[3.2.1]oct-8-yl}pyridine-3-carboxamide]: the IC50 is below 200 nM. With `CC(C)(Oc1ccc(Cl)cc1Cl)C(=O)N[C@H]1C[C@H]2CC[C@@H](C1)N2c1ccc(-c2nnn[nH]2)cn1` [Example 114, 2-[(2,4-dichlorophenyl)oxy]-2-methyl-N-{8-[5-(1H-tetrazol-5-yl)pyridin-2-yl]-8-azabicyclo[3.2.1]oct-3-endo-yl}propanamide], the IC50 was below 200 nM. In the case of `CC(=O)Nc1ccc(N2[C@@H]3CC[C@H]2C[C@@H](NC(=O)C(C)(C)Oc2ccc(Cl)cc2Cl)C3)cc1` [Example 115, N-{8-[4-(acetylamino)phenyl]-8-azabicyclo[3.2.1]oct-3-endo-yl}-2-[(2,4-dichlorophenyl)oxy]-2-methylpropanamide], the IC50 was below 200 nM. As for `CC(C)(Oc1ccc(Cl)cc1Cl)C(=O)N[C@H]1C[C@H]2CC[C@@H](C1)N2c1ccc(NC(=O)C(F)(F)F)cc1` [Example 116, 2-[(2,4-dichlorophenyl)oxy]-2-methyl-N-(8-{4-[(trifluoroacetyl)amino]phenyl}-8-azabicyclo[3.2.1]oct-3-endo-yl)propanamide], the IC50 was below 200 nM.

For `CC(C)(Oc1ccc(Cl)cc1Cl)C(=O)N[C@H]1C[C@H]2CC[C@@H](C1)N2c1ccc(C(=O)NCC(F)(F)F)cc1Cl` [Example 117, 3-chloro-4-[3-endo-({2-[(2,4-dichlorophenyl)oxy]-2-methylpropanoyl}amino)-8-azabicyclo[3.2.1]oct-8-yl]-N-(2,2,2-trifluoroethyl)benzamide], the IC50 is below 200 nM. Turning to `O=C(NC1CC1)c1ccc(N2[C@@H]3CC[C@H]2C[C@@H](NC(=O)C2(c4ccc(Cl)cc4)CC2)C3)c(Cl)c1` [Example 118, 3-chloro-4-[3-endo-({[1-(4-chlorophenyl)cyclopropyl]carbonyl}amino)-8-azabicyclo[3.2.1]oct-8-yl]-N-cyclopropylbenzamide], the IC50 was below 200 nM.

For `O=C(NC1CC1)c1ccc(N2[C@@H]3CC[C@H]2C[C@@H](NC(=O)C2(c4ccc(Cl)cc4)CC2)C3)cc1F` [Example 119, 4-[3-endo-({[1-(4-chlorophenyl)cyclopropyl]carbonyl}amino)-8-azabicyclo[3.2.1]oct-8-yl]-N-cyclopropyl-2-fluorobenzamide], the IC50 is below 200 nM. In the case of `CC(C)(Oc1ccc(Cl)cc1Cl)C(=O)N[C@H]1C[C@H]2CC[C@@H](C1)N2c1ccc(S(C)(=O)=O)cc1` [Example 120, 2-[(2,4-dichlorophenyl)oxy]-2-methyl-N-{8-[4-(methylsulfonyl)phenyl]-8-azabicyclo[3.2.1]oct-3-endo-yl}propanamide], the IC50 is below 200 nM. Consider `O=C(NCC(F)(F)F)c1ccc(N2[C@@H]3CC[C@H]2C[C@@H](NC(=O)C2(c4ccc(F)c(F)c4)CC2)C3)nc1` [Example 121, 6-[3-endo-({[1-(3,4-difluorophenyl)cyclopropyl]carbonyl}amino)-8-azabicyclo[3.2.1]oct-8-yl]-N-(2,2,2-trifluoroethyl)pyridine-3-carboxamide], for which the IC50 was below 200 nM.

For the compound `O=C(NCC(F)(F)F)c1ccc(N2[C@@H]3CC[C@H]2C[C@@H](NC(=O)C2(c4cccc(Cl)c4)CC2)C3)nc1` [Example 122, 6-[3-endo-({[1-(3-chlorophenyl)cyclopropyl]carbonyl}amino)-8-azabicyclo[3.2.1]oct-8-yl]-N-(2,2,2-trifluoroethyl)pyridine-3-carboxamide], the IC50 is below 200 nM.

As to `O=C(NCC(F)(F)F)c1ccc(N2[C@@H]3CC[C@H]2C[C@@H](NC(=O)C2(c4cccc(F)c4)CC2)C3)nc1` [Example 123, 6-[3-endo-({[1-(3-fluorophenyl)cyclopropyl]carbonyl}amino)-8-azabicyclo[3.2.1]oct-8-yl]-N-(2,2,2-trifluoroethyl)pyridine-3-carboxamide], the IC50 was below 200 nM. Consider `CC(C)(Oc1ncc(Cl)cc1Cl)C(=O)N[C@H]1C[C@H]2CC[C@@H](C1)N2c1ccc(C(N)=O)cn1` [Example 124, 6-[3-endo-({2-[(3,5-dichloropyridin-2-yl)oxy]-2-methylpropanoyl}amino)-8-azabicyclo[3.2.1]oct-8-yl]pyridine-3-carboxamide], for which the IC50 was below 200 nM.

As to `CC(C)(Oc1ccc(Cl)cc1Cl)C(=O)N[C@H]1C[C@H]2CC[C@@H](C1)N2c1ccc(S(N)(=O)=O)cn1` [Example 125, N-{8-[5-(aminosulfonyl)pyridin-2-yl]-8-azabicyclo[3.2.1]oct-3-endo-yl}-2-[(2,4-dichlorophenyl)oxy]-2-methylpropanamide], the IC50 is below 200 nM. With `CC(C)(Oc1ccc(Cl)cc1Cl)C(=O)N[C@H]1C[C@H]2CC[C@@H](C1)N2c1ccc(C(=O)NCC(F)(F)C(F)(F)F)cn1` [Example 126, 6-[3-endo-({2-[(2,4-dichlorophenyl)oxy]-2-methylpropanoyl}amino)-8-azabicyclo[3.2.1]oct-8-yl]-N-(2,2,3,3,3-pentafluoropropyl)pyridine-3-carboxamide], the IC50 is below 200 nM. Under `CC(C)(Oc1ncc(Cl)cc1F)C(=O)N[C@H]1C[C@H]2CC[C@@H](C1)N2c1ccc(C(=O)NCC(F)(F)F)cn1` [Example 127, 6-[3-endo-({2-[(5-chloro-3-fluoropyridin-2-yl)oxy]-2-methylpropanoyl}amino)-8-azabicyclo[3.2.1]oct-8-yl]-N-(2,2,2-trifluoroethyl)pyridine-3-carboxamide] stands below 200 nM. Consider `CC(C)(Oc1ccc(OC(F)(F)F)cc1)C(=O)N[C@H]1C[C@H]2CC[C@@H](C1)N2c1ccc(C(=O)NCC(F)(F)F)cn1` [Example 128, 6-(3-endo-{[2-methyl-2-({4-[(trifluoromethyl)oxy]phenyl}oxy)propanoyl]amino}-8-azabicyclo[3.2.1]oct-8-yl)-N-(2,2,2-trifluoroethyl)pyridine-3-carboxamide], for which the IC50 was below 200 nM. On to `CC(C)(Oc1ccc(Cl)cc1Cl)C(=O)N[C@H]1C[C@H]2CC[C@@H](C1)N2c1ccc(C(=O)NCC(F)(F)F)cc1F` [Example 129, 4-[3-endo-({2-[(2,4-dichlorophenyl)oxy]-2-methylpropanoyl}amino)-8-azabicyclo[3.2.1]oct-8-yl]-3-fluoro-N-(2,2,2-trifluoroethyl)benzamide], for which the IC50 is below 200 nM.

Values taken from patent US8163771B2, “11 β-HSD1 modulators” (Exelixis, Inc., priority 2008, dated 2012).
